Data on ten molecules can be found in ChEMBL document CHEMBL1152583 (Bioorg Med Chem, 2009).

The structures appear in SMILES notation.

As usually defined, the IC50 is the concentration at which inhibition is half-maximal. Low readings indicate greater potency, high ones weaker potency. The term inhibition denotes how much of the control response was suppressed. Lower therefore signals a weak effect.

For experiment [1], the target named is Acetylcholinesterase (Torpedo californica, UniProt P04058).
Acetylcholinesterase (Torpedo californica, UniProt P04058), sequence (P04058 whole entry): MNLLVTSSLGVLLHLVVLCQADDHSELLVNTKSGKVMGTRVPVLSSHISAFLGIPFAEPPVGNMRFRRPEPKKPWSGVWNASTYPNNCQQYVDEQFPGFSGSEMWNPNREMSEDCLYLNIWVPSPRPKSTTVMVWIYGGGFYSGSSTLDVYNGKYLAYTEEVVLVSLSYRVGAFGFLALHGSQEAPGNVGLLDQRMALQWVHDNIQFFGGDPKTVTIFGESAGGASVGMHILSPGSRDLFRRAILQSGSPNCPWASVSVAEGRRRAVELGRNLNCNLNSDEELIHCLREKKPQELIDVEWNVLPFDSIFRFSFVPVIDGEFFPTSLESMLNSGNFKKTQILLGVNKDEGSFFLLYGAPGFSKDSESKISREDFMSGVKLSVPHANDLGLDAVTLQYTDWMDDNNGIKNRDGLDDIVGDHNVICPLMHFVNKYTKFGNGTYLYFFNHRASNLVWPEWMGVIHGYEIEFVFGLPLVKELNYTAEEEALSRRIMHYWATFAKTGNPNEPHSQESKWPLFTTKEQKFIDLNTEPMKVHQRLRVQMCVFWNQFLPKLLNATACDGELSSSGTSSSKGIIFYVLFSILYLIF
Description: Inhibition of Torpedo california AChE by Ellman's method
The target of experiment [2] is Acetylcholinesterase (Homo sapiens, UniProt P22303).
Acetylcholinesterase (Homo sapiens, UniProt P22303), sequence (P22303 whole entry): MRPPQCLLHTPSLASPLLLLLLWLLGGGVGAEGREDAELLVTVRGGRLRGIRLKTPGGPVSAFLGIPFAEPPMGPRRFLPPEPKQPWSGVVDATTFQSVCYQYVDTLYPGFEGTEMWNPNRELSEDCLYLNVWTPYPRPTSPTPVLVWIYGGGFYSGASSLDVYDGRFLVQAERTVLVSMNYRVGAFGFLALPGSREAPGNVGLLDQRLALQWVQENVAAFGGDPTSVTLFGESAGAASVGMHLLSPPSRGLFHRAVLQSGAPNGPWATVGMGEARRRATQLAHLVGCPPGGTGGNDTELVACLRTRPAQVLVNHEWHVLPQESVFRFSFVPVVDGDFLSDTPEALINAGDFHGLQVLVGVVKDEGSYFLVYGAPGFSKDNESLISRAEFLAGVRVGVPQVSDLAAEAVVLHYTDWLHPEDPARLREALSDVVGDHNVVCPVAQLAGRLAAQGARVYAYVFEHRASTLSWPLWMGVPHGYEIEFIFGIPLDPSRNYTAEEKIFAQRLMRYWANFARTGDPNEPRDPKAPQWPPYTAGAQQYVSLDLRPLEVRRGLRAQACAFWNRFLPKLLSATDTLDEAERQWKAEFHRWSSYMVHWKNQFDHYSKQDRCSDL
Description: Inhibition of human AChE by Ellman's method
The target in experiment [3] is Acetylcholinesterase (Torpedo californica) (UniProt P04058). Kind of experiment: Inhibition of Torpedo california AChE at 0.313 nM by Ellman's method. Conditions: Tetronarce californica. (DTNB colorimetry detects thiols as they appear.)
Acetylcholinesterase (Torpedo californica), sequence (P04058 22-564 limits assumed): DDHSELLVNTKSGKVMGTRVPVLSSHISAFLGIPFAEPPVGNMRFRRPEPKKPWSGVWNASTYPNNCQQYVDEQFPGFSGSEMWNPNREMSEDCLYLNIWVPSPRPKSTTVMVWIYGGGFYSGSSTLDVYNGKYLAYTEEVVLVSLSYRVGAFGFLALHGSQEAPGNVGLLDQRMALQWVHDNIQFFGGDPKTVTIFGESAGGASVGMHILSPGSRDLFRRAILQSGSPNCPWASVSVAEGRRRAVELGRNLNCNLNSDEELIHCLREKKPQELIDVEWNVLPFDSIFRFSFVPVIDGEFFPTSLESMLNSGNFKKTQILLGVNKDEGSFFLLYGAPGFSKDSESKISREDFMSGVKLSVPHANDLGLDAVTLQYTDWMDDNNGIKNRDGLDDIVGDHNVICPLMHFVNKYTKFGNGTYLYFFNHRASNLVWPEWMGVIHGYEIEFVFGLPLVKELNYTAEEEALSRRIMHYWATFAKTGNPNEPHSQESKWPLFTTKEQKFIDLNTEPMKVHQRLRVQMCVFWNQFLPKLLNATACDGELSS
For experiment [4] the target is unchanged. Kind of experiment: Inhibition of Torpedo california AChE at 1.25 nM by Ellman's method. The note with it: Tetronarce californica.
Experiment [5] shares this target. Put plainly: Inhibition of Torpedo california AChE at 0.25 nM by Ellman's method. The note with it: Tetronarce californica.
Experiment [6] has the same target. Put plainly: Inhibition of Torpedo california AChE at 0.5 nM by Ellman's method. The note with it: Tetronarce californica.
For experiment [7] the target is unchanged. Put plainly: Inhibition of Torpedo california AChE at 0.625 nM by Ellman's method. Conditions: Tetronarce californica.
Experiment [8] has the same target. Kind of experiment: Inhibition of Torpedo california AChE at 7.81 pM by Ellman's method. The note with it: Tetronarce californica.
For experiment [9] the target is unchanged. Put plainly: Inhibition of Torpedo california AChE at 62.5 pM by Ellman's method. The note with it: Tetronarce californica.
The target is the same in experiment [10]. Put plainly: Inhibition of Torpedo california AChE at 31.3 pM by Ellman's method. Conditions: Tetronarce californica.
Experiment [11] has the same target. Kind of experiment: Inhibition of Torpedo california AChE at 0.125 nM by Ellman's method. The note with it: Tetronarce californica.
For experiment [12] the target is unchanged. Put plainly: Inhibition of Torpedo california AChE at 15.6 pM by Ellman's method. The note with it: Tetronarce californica.
Experiment [13] shares this target. Kind of experiment: Ratio of IC50 for drug to P0407 for Torpedo california AChE by Ellman's method. Conditions: Tetronarce californica.
Experiment [14] shares this target. Put plainly: Inhibition of Torpedo california AChE at 15.1 nM by Ellman's method. The note with it: Tetronarce californica.
Experiment [15] shares this target. Put plainly: Inhibition of Torpedo california AChE at 30.3 nM by Ellman's method. The note with it: Tetronarce californica.
Experiment [16] shares this target. Put plainly: Inhibition of Torpedo california AChE at 7.56 nM by Ellman's method. Conditions: Tetronarce californica.
Experiment [17] has the same target. Put plainly: Inhibition of Torpedo california AChE at 5 nM by Ellman's method. Conditions: Tetronarce californica.
For experiment [18] the target is unchanged. Kind of experiment: Inhibition of Torpedo california AChE at 2.5 nM by Ellman's method. The note with it: Tetronarce californica.
Experiment [19] has the same target. The note with it: Tetronarce californica; 0.625 uM.
Description: Inhibition of Torpedo california AChE at 0.625 uM by Ellman's method
Experiment [20] shares this target. The note with it: Tetronarce californica; 25 uM.
Description: Inhibition of Torpedo california AChE at 25 uM by Ellman's method
Experiment [21] shares this target. Conditions: Tetronarce californica; 5 uM.
Description: Inhibition of Torpedo california AChE at 5 uM by Ellman's method
The target is the same in experiment [22]. The note with it: Tetronarce californica; 1.25 uM.
Description: Inhibition of Torpedo california AChE at 1.25 uM by Ellman's method
Experiment [23] has the same target. Conditions: Tetronarce californica; 0.313 uM.
Description: Inhibition of Torpedo california AChE at 0.313 uM by Ellman's method
Experiment [24] shares this target. The note with it: Tetronarce californica; 60.5 nM.
Description: Inhibition of Torpedo california AChE at 60.5 nM by Ellman's method

`C=CCOc1ccc(/C=N/[C@@]23CC(C)=C[C@@H](Cc4[nH]c(=O)ccc42)/C3=C\C)cc1`: the IC50 in experiment [1] is 13.9 nM; in experiment [2] it was 31 nM.
On to `C/C=C1\[C@H]2C=C(C)C[C@]1(/N=C/c1ccc(O)c(OCC)c1)c1ccc(=O)[nH]c1C2`, for which the inhibition in [3] stood at 28.2%; in [4], 56.2%; in experiment [5], 68.1%; in experiment [6], 84%; in [7], 43.6%. For the same molecule, the IC50 in experiment [1] came out at 0.842 nM; in experiment [2] it was 25 nM.
Turning to `C/C=C1\[C@H]2C=C(C)C[C@]1(/N=C/c1ccccc1OS(=O)(=O)O)c1ccc(=O)[nH]c1C2`, the IC50 was determined as 18.2 nM in [1] and 41 nM in [2].
Turning to `C/C=C1\[C@H]2C=C(C)C[C@]1(/N=C/c1ccc(C#N)cc1)c1ccc(=O)[nH]c1C2`, the inhibition in [8] worked out at 12.6%; in experiment [9], 79.4%; in experiment [10] it was 38.7%; in experiment [11] it was 89.3%; in experiment [12], 26%. For the same molecule, the IC50 in experiment [1] stood at 0.0412 nM; in experiment [2], 22 nM. Further, in experiment [13], the Ratio is 517.
In the case of `CNC(=O)Oc1ccc2c(c1)[C@]1(C)CCN(C)[C@@H]1N2C`, the inhibition amounted to 45.5% in experiment [14], 64.3% in experiment [15] and 24.7% in experiment [16].
`C/C=C1\[C@H]2C=C(C)C[C@]1(/N=C/C=C/c1ccccc1)c1ccc(=O)[nH]c1C2`: the inhibition in experiment [3] was 5.5%; in experiment [4], 37.1%; in [17], 83.4%; in experiment [18] it was 62.5%; in experiment [7] it was 16.7%. Further, the IC50 in experiment [1] stood at 1.81 nM; in experiment [2], 24 nM.
As to `C/C=C1\[C@H]2C=C(C)C[C@]1(/N=C/c1ccc(OC)cc1OC)c1ccc(=O)[nH]c1C2`, the inhibition came to 15.9% in experiment [8]; 62.8% in [9]; 36.2% in [10]; 76.5% in experiment [11]; 22.1% in experiment [12]. The results for the IC50 in experiment [1] and in [2] were 0.0446 nM and 84 nM, respectively. Further, the Ratio in experiment [13] was 477.
For `C/C=C1\[C@H]2C=C(C)C[C@]1(/N=C/C(=C/c1ccccc1)CCCCC)c1ccc(=O)[nH]c1C2`, the inhibition was 44.2% in [19]; 79% in experiment [20]; 86% in experiment [21]; 58.6% in experiment [22]; 30.4% in experiment [23]. Further, the IC50 in experiment [1] is 796 nM; in experiment [2], 51 nM.
Turning to `C/C=C1\[C@H]2C=C(C)C[C@]1(/N=C/c1ccc(N(C)C)cc1)c1ccc(=O)[nH]c1C2`, the IC50 in experiment [1] is 23.3 nM; in experiment [2], 31 nM.
As to `C/C=C1\[C@H]2C=C(C)C[C@]1(/N=C/c1cc(OC)cc(OC)c1)c1ccc(=O)[nH]c1C2`, the inhibition in experiment [8] came out at 28.5%; in experiment [9], 80.6%; in experiment [10] it was 61.7%; in experiment [11], 90.8%; in [12], 41.3%; in [24], 73.7%. Also, the values for the IC50 in experiment [1] and in experiment [2] were 0.02 nM and 29 nM, respectively. The Ratio in [13] is 1060.
